Reference: ChEMBL document CHEMBL5316366, “Immunomodulatory Effects of New Phenanthrene Derivatives from Dendrobium crumenatum” (J Nat Prod, 2023)
Calls of active or inactive are those of the source. The rule behind the calls is not given here.

Columns and labels:
[1] = tested on: PBMC; test: Immunomodulatory activity in PMA/ionomycin-induced human PBMC assessed as reduction in frequency of IFN-gamma expressing CD3+ activated T cells at 1 to 20 uM incubated for 4 hrs by flow cytometry; type: functional, cell-based; settings: dose 1-20 µM
[2] = tested on: PBMC; test: Immunomodulatory activity in PMA/ionomycin-induced human PBMC assessed as reduction in frequency of IL-2 expressing CD3+ T cells at 1 to 20 uM incubated for 4 hrs by flow cytometry; type: functional, cell-based; settings: dose 1-20 µM
[3] = tested on: PBMC; test: Immunomodulatory activity in PMA/ionomycin-induced human PBMC assessed as reduction in frequency of TNF-alpha expressing CD14+ inflammatory monocytes at 1 to 20 uM incubated for 4 hrs by flow cytomtery; type: functional, cell-based; settings: dose 1-20 µM
[4] = tested on: PBMC; test: Cytotoxicity against human PBMC assessed as early apoptotic cells at 1 to 20 uM incubated for 4 hrs by Annexin V-FITC/7-AAD staining based flow cytometric analysis; type: toxicity, cell-based; settings: dose 1-20 µM
[5] = tested on: PBMC; test: Cytotoxicity against human PBMC assessed as late apoptotic cells at 1 to 20 uM incubated for 4 hrs by Annexin V-FITC/7-AAD staining based flow cytometric analysis; type: toxicity, cell-based; settings: dose 1-20 µM
[6] = tested on: PBMC; test: Immunomodulatory activity in human PBMC derived from multiple sclerosis patient assessed as reduction in IL-2 expressing CD3+ T cells at 10 uM incubated for 4 hrs by flow cytometry; type: functional, cell-based
[7] = tested on: PBMC; test: Immunomodulatory activity in human PBMC derived from multiple sclerosis patient assessed as reduction in IFN-gamma expressing CD3+ T cells at 10 uM incubated for 4 hrs by flow cytometry; type: functional, cell-based
[8] = tested on: PBMC; test: Immunomodulatory activity in human PBMC derived from multiple sclerosis patient assessed as reduction in TNF-alpha expressing CD3+ T cells at 10 uM incubated for 4 hrs by flow cytometry; type: functional, cell-based
[9] = tested on: PBMC; test: Inhibition of Ca2+ influx in human PBMC derived from multiple sclerosis patient assessed as reduction in Ca2+ influx rate in CD4+ T cells at 10 uM incubated for 4 hrs by Fluo-4 AM staining based flow cytometry method; type: functional, cell-based
[10] = tested on: PBMC; test: Inhibition of Ca2+ influx in human PBMC derived from multiple sclerosis patient assessed as reduction in Ca2+ influx rate in CD8+ T cells at 10 uM incubated for 4 hrs by Fluo-4 AM staining based flow cytometry method; type: functional, cell-based
[11] = tested on: PBMC; test: Immunomodulatory activity in PMA/ionomycin-induced human PBMC derived from multiple sclerosis patient assessed as decrease in frequency of CD161+ CD3+T-bet+CD4-CD8-CD14- double negative T cells by CyTOF assay; type: functional, cell-based
[12] = tested on: PBMC; test: Immunomodulatory activity in PMA/ionomycin-induced human PBMC derived from multiple sclerosis patient assessed as increase in frequency of CTLA4+CRTH2+ CD8+ T cells by CyTOF assay; type: functional, cell-based
[13] = tested on: PBMC; test: Immunomodulatory activity in multiple sclerosis patient derived PBMC derived from multiple sclerosis patient assessed as increase in frequency of CTLA4+CRTH2+ CD8+ T cells by CyTOF assay; type: functional, cell-based; settings: Homo sapiens
[14] = tested on: PBMC; test: Immunomodulatory activity in PMA/ionomycin-induced human PBMC derived from multiple sclerosis patient assessed as reduction in frequency of reactive ICOS+ CD4+ T cells by CyTOF assay; type: functional, cell-based
[15] = tested on: PBMC; test: Immunomodulatory activity in multiple sclerosis patient derived PBMC derived from multiple sclerosis patient assessed as reduction in frequency of reactive ICOS+ CD4+ T cells by CyTOF assay; type: functional, cell-based; settings: Homo sapiens
[16] = tested on: PBMC; test: Inhibition of Ca2+ influx in human PBMC derived from multiple sclerosis patient assessed as decrease in Ca2+ influx rate in CD4+ T cells at 1 uM incubated for 4 hrs by Fluo-4 AM staining based flow cytometry method; type: functional, cell-based
[17] = tested on: PBMC; test: Inhibition of Ca2+ influx in human PBMC derived from multiple sclerosis patient assessed as decrease in Ca2+ influx rate in CD8+ T cells at 1 uM incubated for 4 hrs by Fluo-4 AM staining based flow cytometry method; type: functional, cell-based

Compound | Activity [2] | Activity [4] | Activity [5] | Activity [6] | Activity [7] | Activity [8] | inhibition [9] | inhibition [10] | also measured
COC1=CC(=O)c2c(ccc3c(OC)c(O)ccc23)[C@@]12Oc1cc(OC)cc3ccc4c(c13)C2=CC(=O)C4=O | Active | Non-Toxic | Non-Toxic | Active | Active | Active | inactive | inactive | Activity [1]: Active; Activity [3]: Active; Activity [11]: Active; Activity [12]: Active; Activity [13]: Active; Activity [14]: Active; Activity [15]: Active
COc1cc2ccc3c(OC)c(O)ccc3c2c(OC)c1O | Active | – | – | – | – | – | – | – | –
COc1cc2c(c(OC)c1O)-c1ccc(O)c(O)c1CC2 | Active | Non-Toxic | Non-Toxic | Active | Active | Active | inactive | inactive | –
Cc1cccc(F)c1C(=O)Nc1cnc(-c2cc3c(cc2Cl)OC(F)(F)O3)cn1 | – | – | – | – | – | – | – | – | inhibition [16]: Active; inhibition [17]: Active
COC1=CC(=O)c2c(ccc3c(OC)c(O)ccc23)C1=O | Active | – | – | – | – | – | – | – | –
